Data set [1] relates to 6-OHDA-treated Neuro-2a cells. Description: Apoptosis profile by flow cytometry (Annexin V & Dead Cell Kit). In kind it is cell-based, murine. The settings on record: Table 1; polyphenols 10 µM, 6-OHDA 100 µM, 24 h; mean. The procedure:
We investigated the effect of polyphenolic compounds from M. amurensis on apoptosis profile in 6-OHDA-treated Neuro-2a cells by flow cytometry using fluorescent annexin V conjugate as a fluorescent dye. We observed significant changes in apoptosis profile in Neuro-2a cells after 6-OHDA-treatment. […] Polyphenols 3, 6 and 13 diminished the neurotoxic effect of 6-OHDA-treatment.
The cells were incubated for 1 h in a 6-well plate (5 × 10^4 cells/mL) with polyphenolic compounds (10 µM). Then, 6-OHDA (100 µM) was added, and cell suspension was incubated for 24 h. After incubation, the maintenance media was collected, and the cells were washed by cold PBS twice and incubated with trypsin-EDTA solution. The cell suspension was washed with cold PBS twice again, centrifugated and then used for apoptosis detection by Muse® Annexin V & Dead Cell Kit in accordance with the manufacturer’s instructions (Luminex, Austin, TX, USA). The fluorescence was measured with Muse® Cell Analyzer (Luminex, Austin, TX, USA) and the data were processed by Muse 1.5 Analysis software (Luminex, Austin, TX, USA).

Data set [2] is described as follows: Cytotoxicity against Vero cells (MTT assay). The data set is classed as cell-based. Conditions: African green monkey. The procedure:
We prepared the stock solutions of the tested compounds (10 mg/mL) in DMSO (Sigma, St. Louis, MO, USA). For the MTT assay and further studies of anti-HSV-1 activity, we diluted the stock solutions with DMEM so that the final concentration of DMSO was 0.5%.
We used MTT assay to determine the cytotoxic effect of the tested compounds against Vero cells. We performed the MTT assay as previously described.
For orientation: Tetrazolium assays rely on reduction of a dye to a coloured formazan, in cell work by metabolically active cells.

Data set [3] deals with HSV-1. Nature of the data set: Pretreatment of cells with polyphenolic compounds, CPE inhibition assay. The data set is classed as cell-based, HSV-1 strain L2. The settings on record: for IC50: Human alphaherpesvirus 1, cells pretreated 2 h before infection, CPE assay; for Pretreatment of Cells SI: ratio of CC50 to IC50. The method, then:
(§1) In order to study the mechanism of action of these compounds, two additional schemes of treatment of the virus and Vero cells with polyphenols were applied: the compounds were added before virus infection (pretreatment of cells) and after penetration of the virus into host cells (treatment of infected cells). The fourth method of exposure where the virus and polyphenols were added to cells simultaneously (simultaneous treatment) was previously described by us in [22]. The anti-HSV-1 activity of polyphenols was assessed using the cytopathic effect inhibition (CPE) assay.
The monolayer of cells was pretreated with different concentrations of the studied compounds for 2 h at 37 °C. After washing, the cells were infected with 100 TCID50/mL of the virus at 37 °C for 1 h. Then, unabsorbed virus was removed by washing with PBS (Sigma, Saint-Louis, MO, USA), and cells were incubated in the maintenance medium until CPE appeared.

In data set [4] the test system is HSV-1. Nature of the data set: Treatment of virus-infected cells with polyphenols, CPE inhibition assay. Conditions: for IC50: Human alphaherpesvirus 1, compound added after virus adsorption and penetration, CPE assay; for Treatment of Infected Cells SI: ratio of CC50 to IC50. The data set is classed as cell-based, HSV-1 strain L2. The procedure: as §1
The monolayer of cells was infected with the virus (100 TCID50/mL) at 37 °C for 1 h, and then the cells were washed with PBS (Sigma, Saint-Louis, MO, USA) and treated with different concentrations of the studied compounds and incubated until CPE appeared.

Data set [5] has as its system HSV-1. The arrangement: method as in PMID 36985562. Conditions: ref [22], cited from earlier work; for Simultaneous Treatment SI: ratio of CC50 to IC50; for Simultaneous Treatment IC50 / IC50: virus and compound added to cells simultaneously, CPE assay; for IC50: read-out: Simultaneous Treatment IC50.
The test system of data set [6] is 6-OHDA-treated Neuro-2a cells. Description: Mitochondrial membrane potential detection (TMRM) in 6-OHDA-treated cells. In kind it is cell-based, murine. Conditions: compound 10 µM; 6-OHDA 120 µM; TMRM. The method, then: We determined the effect of polyphenolic compounds from M. amurensis on 6-OHDA-induced mitochondrial dysfunction in Neuro-2a cells (Figure 6a,b).
Figure 6 The effect of polyphenolic compounds isolated from M. amurensis heartwood on mitochondrial membrane potential in Neuro-2a cells treated with 6-OHDA (120 μM) (a,b). Polyphenolic compounds isolated from M. amurensis heartwood were used at concentrations 10, 1, 0.1 μM. The data are presented as means ± SEM of three independent replicates. (*) and (***) indicate, respectively, p < 0.05 and p < 0.001 versus 6-OHDA-treated cells.
The cells were incubated for 1 h in a 96-well plate (1 × 10^4 cells/well) with polyphenolic compounds (0.1, 1 and 10 µM). Then, 6-OHDA (120 µM) was added, and cell suspension was incubated for 1 h. Cells incubated without 6-OHDA and compounds and with 6-OHDA alone were used as positive and negative control, respectively. The tetramethylrhodamine methyl (TMRM) (Sigma-Aldrich, St. Louis, MO, USA) solution (500 nM) was added to each well and cells were incubated for 30 min at 37 °C. The intensity of fluorescence was measured using a PHERAstar FSplate reader (BMG Labtech, Ortenberg, Germany) at λex = 540 nm and λem = 590 nm. The data were processed by MARS Data Analysis v. 3.01R2 (BMG Labtech, Ortenberg, Germany).

The test system of data set [7] is 6-OHDA-treated Neuro-2a cells. Nature of the data set: 6-OHDA-induced neurotoxicity model, cell viability test (MTT). In kind it is cell-based, murine. The settings on record: compounds at 10, 1, 0.1 µM; 6-OHDA 100 µM.

Values joined by “and” are separate entries in the source; they are usually repeats but may differ in a detail not shown here. Identical values can stand only once. Like-named read-outs stand apart in the source and are kept apart here.

One may read the CC50 as the concentration giving 50% cytotoxicity. Usually IC50 stands for the concentration at which inhibition is half-maximal. In the case of `Oc1ccc(/C=C/c2cc(O)cc3c2[C@H](c2cc(O)cc(O)c2)[C@@H](c2ccc(O)c(O)c2)O3)cc1` [Compound 13, scirpusin A], in data set [1], the Dead is 0.73 ± 0.15%, the Early apop. turned out to be 30.18 ± 1.13 %, the “Late apop./Dead” value worked out at 12.2 ± 0.34% and the Live was found to be 56.90 ± 1.32 %. The compound further had a CC50 in data set [2] of 424 ± 50.1 µM. Further, in data set [3], the IC50 is 47.2 µg/mL and 100 µM; the “Pretreatment of Cells SI” value is 4.2 and 4.2 ± 0.6. Further, in data set [4], the 50% inhibitory concentration (IC50) was 20.2 µg/mL and 43 µM; the “Treatment of Infected Cells SI” value was 9.8 ± 1.2. In data set [5], the “Simultaneous Treatment SI” value was 14.4 ± 1.7, the “Simultaneous Treatment IC50” value was 13.8 ± 1.6 µg/mL and the IC50 is 29.4 ± 3.4 µM.

`O=C1C[C@@H](c2ccc(O)cc2)Oc2cc(O)ccc21` [Compound 6, liquiritigenin]: the “increase of mitochondrial membrane potential” value (“increase” below) in data set [6] was 8–12%. In addition, in data set [1], the Dead came to 0.61 ± 0.13%, the Early apop. is 27.67 ± 1.09 %, the “Late apop./Dead” value stood at 10.89 ± 0.86% and the Live worked out at 61.83 ± 0.09 %.

As for `Oc1cc(O)cc(/C=C/c2ccc3c(c2)O[C@H](c2cc(O)cc(O)c2)[C@@H](c2ccc(O)c(O)c2)O3)c1` [Compound 9, maackin], the “effect on viability of 6-OHDA-treated Neuro-2a cells (in words)” value in data set [7] is “did not show significant activity”. Moreover, in data set [6], the “increase” value is reported as 8–12%. Moreover, in data set [3], the IC50 was 70.3 µg/mL and 145 µM; the “Pretreatment of Cells SI” value is 3.8 and 3.8 ± 0.5. Moreover, in data set [4], the IC50 was 24.5 µg/mL and 50.4 µM; the “Treatment of Infected Cells SI” value was determined as 11.0 ± 1.4. Besides, in data set [5], the “Simultaneous Treatment SI” value is listed as 15.3 ± 1.9, the “Simultaneous Treatment IC50” value was 17.6 ± 2.3 µg/mL and the IC50 is 36.2 ± 4.7 µM.

Turning to `Oc1ccc(/C=C/c2cc(O)cc(O)c2)cc1` [Compound 1, resveratrol], the “effect on viability of 6-OHDA-treated Neuro-2a cells (in words)” value in data set [7] is reported as “did not cause any increase in the viability”. Moreover, in data set [6], the “increase” value is listed as 8–12%. For the same compound, the CC50 in data set [2] is 123 µg/mL and 540 µM.

Source of the values: publication PMC11050087, “Polyphenols from Maackia amurensis Heartwood Protect Neuronal Cells from Oxidative Stress and Prevent Herpetic Infection” (International Journal of Molecular Sciences, 2024).
